Assay results: ChEMBL document CHEMBL1136505, “Myxovirescin analogues via macrocyclic ring-closing metathesis” (2003)
Values after ≈ are worked out from the molar mass of the structure shown. One block for each compound: values may come before it. Active and inactive are the calls of the source. The rule behind the calls is not given here.

Key:
[1] = test system: Prevotella buccae; assay: Minimum inhibitory concentration against Bacteroides buccae (ATCC 67792) using agar method; type: functional; conditions: Segatella buccae
[2] = test system: Bacteroides uniformis; assay: Minimum inhibitory concentration against Bacteroides uniformis (ATCC 62723) using agar method; type: functional
[3] = test system: Prevotella bivia; assay: Minimum inhibitory concentration against Bacteroides bivus (ATCC 64362) using agar method; type: functional
[4] = test system: Pasteurella multocida; assay: Minimum inhibitory concentration against Pasteurella multocida (ATCC 63560) using agar method; type: functional
[5] = test system: Pasteurella sp.; assay: Minimum inhibitory concentration against Pasteurella sp.(ATCC 67535) using agar method; type: functional
[6] = test system: Pasteurella sp.; assay: Minimum inhibitory concentration against Pasteurella sp.(ATCC 71886) using agar method; type: functional
[7] = test system: Bacteroides ovatus; assay: Minimum inhibitory concentration against Bacteroides ovatus (ATCC 66640) using agar method; type: functional
[8] = test system: Hoylesella oralis; assay: Minimum inhibitory concentration against Bacteroides oralis (ATCC 72708) using agar method; type: functional
[9] = test system: Pasteurella sp.; assay: Minimum inhibitory concentration against Pasteurella sp.(ATCC 69527) using agar method; type: functional
[10] = test system: Fusobacterium mortiferum; assay: Minimum inhibitory concentration against Fusobacterium mortiferum (ATCC 63425) using agar method; type: functional
[11] = test system: Escherichia coli; assay: Minimum inhibitory concentration against Escherichia coli (ATCC NCTC 6571) using agar method; type: functional
[12] = test system: Pseudoflavonifractor capillosus; assay: Minimum inhibitory concentration against Bacteroides capillosus (ATCC 60802) using agar method; type: functional
[13] = test system: Schaalia meyeri; assay: Minimum inhibitory concentration against Actinomyces meyeri (ATCC 61789) using agar method; type: functional
[14] = test system: Corynebacterium sp.; assay: Minimum inhibitory concentration against Corynebacterium sp. (ATCC 68984) using agar method; type: functional
[15] = test system: Pasteurella multocida; assay: Minimum inhibitory concentration against Pasteurella multocida (ATCC 61096) using agar method; type: functional
[16] = test system: Staphylococcus aureus; assay: Minimum inhibitory concentration against Staphylococcus aureus (ATCC NCTC 6571) using agar method; type: functional
[17] = test system: Pasteurella sp.; assay: Minimum inhibitory concentration against Pasteurella sp.(ATCC 67777) using agar method; type: functional
[18] = test system: Porphyromonas gingivalis; assay: Minimum inhibitory concentration against Porphyromonas gingivalis sp.(ATCC D23C) using agar method; type: functional
[19] = test system: Porphyromonas canoris; assay: Minimum inhibitory concentration against Porphyromonas canoris (ATCC NCTC 12836) using agar method; type: functional
[20] = test system: Fusobacterium sp.; assay: Minimum inhibitory concentration against Fusobacterium sp.(ATCC 74714) using agar method; type: functional, fusobacterium species
[21] = test system: Porphyromonas canoris; assay: Minimum inhibitory concentration against Porphyromonas canoris (ATCC NCTC 12835) using agar method; type: functional
[22] = test system: Actinomyces sp.; assay: Minimum inhibitory concentration against Actinomyces sp.(ATCC 70710) using agar method; type: functional
[23] = test system: Propionibacterium; assay: Minimum inhibitory concentration against Propionibacterium sp.(ATCC 72661) using agar method; type: functional
[24] = test system: Fusobacterium mortiferum; assay: Antibacterial activity against Fusobacterium mortiferum (ATCC 63425) at a concentration of 200 ug/mL; not active; type: functional, organism-based
[25] = test system: Corynebacterium sp.; assay: Antibacterial activity against Corynebacterium sp. (ATCC 68984) at a concentration of 200 ug/mL; not active; type: functional, organism-based
[26] = test system: Bacteroides ovatus; assay: Antibacterial activity against Bacteroides ovatus (ATCC 66640) at a concentration of 200 ug/mL; not active; type: functional, organism-based
[27] = test system: Pasteurella sp.; assay: Antibacterial activity against Pasteurella sp.(ATCC 67777) at a concentration of 200 ug/mL; not active; type: functional, organism-based
[28] = test system: Schaalia meyeri; assay: Antibacterial activity against Actinomyces meyeri (ATCC 61789) at a concentration of 200 ug/mL; Active; type: functional, organism-based
[29] = test system: Prevotella buccae; assay: Antibacterial activity against Bacteroides buccae (ATCC 67792) at a concentration of 200 ug/mL; not active; type: functional, organism-based; conditions: Segatella buccae
[30] = test system: Fusobacterium sp.; assay: Antibacterial activity against Fusobacterium sp.(ATCC 74714) at a concentration of 200 ug/mL; not active; type: functional, organism-based
[31] = test system: Actinomyces sp.; assay: Antibacterial activity against Actinomyces sp.(ATCC 70710) at a concentration of 200 ug/mL; not active; type: functional, organism-based
[32] = test system: Pasteurella sp.; assay: Antibacterial activity against Pasteurella sp.(ATCC 67535) at a concentration of 200 ug/mL; not active; type: functional, organism-based
[33] = test system: Porphyromonas canoris; assay: Antibacterial activity against Porphyromonas canoris (ATCC NCTC 12835) at a concentration of 200 ug/mL; Active; type: functional, organism-based
[34] = test system: Porphyromonas gingivalis; assay: Antibacterial activity against Porphyromonas gingivalis sp.(ATCC D23C) at a concentration of 200 ug/mL; type: functional, organism-based
[35] = test system: Escherichia coli; assay: Antibacterial activity against Escherichia coli (ATCC NCTC 6571) at a concentration of 200 ug/mL; not active; type: functional, organism-based
[36] = test system: Pseudoflavonifractor capillosus; assay: Antibacterial activity against Bacteroides capillosus (ATCC 60802) at a concentration of 200 ug/mL; not active; type: functional, organism-based
[37] = test system: Staphylococcus aureus; assay: Antibacterial activity against Staphylococcus aureus (ATCC NCTC 6571) at a concentration of 200 ug/mL; not active; type: functional, organism-based
[38] = test system: Pasteurella multocida; assay: Antibacterial activity against Pasteurella multocida (ATCC 63560) at a concentration of 200 ug/mL; not active; type: functional, organism-based
[39] = test system: Pasteurella sp.; assay: Antibacterial activity against Pasteurella sp.(ATCC 69527) at a concentration of 200 ug/mL; not active; type: functional, organism-based
[40] = test system: Propionibacterium; assay: Antibacterial activity against Propionibacterium sp.(ATCC 72661) at a concentration of 200 ug/mL; not active; type: functional, organism-based
[41] = test system: Pasteurella sp.; assay: Antibacterial activity against Pasteurella sp.(ATCC 71886) at a concentration of 200 ug/mL; not active; type: functional, organism-based
[42] = test system: Prevotella bivia; assay: Antibacterial activity against Bacteroides bivus (ATCC 64362) at a concentration of 200 ug/mL; not active; type: functional, organism-based
[43] = test system: Bacteroides uniformis; assay: Antibacterial activity against Bacteroides uniformis (ATCC 62723) at a concentration of 200 ug/mL; not active; type: functional, organism-based
[44] = test system: Pasteurella multocida; assay: Antibacterial activity against Pasteurella multocida (ATCC 61096) at a concentration of 200 ug/mL; not active; type: functional, organism-based
[45] = test system: Hoylesella oralis; assay: Antibacterial activity against Bacteroides oralis (ATCC 72708) at a concentration of 200 ug/mL; not active; type: functional, organism-based
[46] = test system: Porphyromonas canoris; assay: Antibacterial activity against Porphyromonas canoris (ATCC NCTC 12836) at a concentration of 200 ug/mL; Active; type: functional, organism-based

MIC [1]: > 50 µg/mL
MIC [2]: 12.5 µg/mL (≈ 20 µM)
MIC [3]: 6.25 µg/mL (≈ 9.99 µM)
MIC [4]: 0.78 µg/mL (≈ 1.25 µM)
MIC [5]: 0.78 µg/mL (≈ 1.25 µM)
MIC [6]: 0.78 µg/mL (≈ 1.25 µM)
MIC [7]: 12.5 µg/mL (≈ 20 µM)
MIC [8]: 6.25 µg/mL (≈ 9.99 µM)
MIC [9]: 3.12 µg/mL (≈ 4.98 µM)
MIC [10]: > 50 µg/mL
MIC [11]: 3.12 µg/mL (≈ 4.98 µM)
MIC [12]: 12.5 µg/mL (≈ 20 µM)
MIC [13]: 12.5 µg/mL (≈ 20 µM)
MIC [14]: 12.5 µg/mL (≈ 20 µM)
MIC [15]: 1.56 µg/mL (≈ 2.49 µM)
MIC [16]: > 50 µg/mL
MIC [17]: 1.56 µg/mL (≈ 2.49 µM)
MIC [18]: 1.56 µg/mL (≈ 2.49 µM)
SMILES: CCC[C@@H]1OC(=O)[C@@H](C)C[C@H](C)CCCCC(=O)CCC[C@@H](CC)CC/C=C(\COC)CC[C@@H](O)[C@@H](O)C[C@H](O)CNC1=O

MIC [1]: 12.5 µg/mL (≈ 20 µM)
MIC [2]: > 50 µg/mL
MIC [19]: 25 µg/mL (≈ 40.1 µM)
MIC [3]: > 50 µg/mL
MIC [4]: > 50 µg/mL
MIC [5]: 12.5 µg/mL (≈ 20 µM)
MIC [20]: > 50 µg/mL
MIC [6]: 12.5 µg/mL (≈ 20 µM)
MIC [21]: 25 µg/mL (≈ 40.1 µM)
MIC [22]: > 50 µg/mL
MIC [23]: > 50 µg/mL
MIC [7]: > 50 µg/mL
MIC [8]: > 50 µg/mL
MIC [9]: 25 µg/mL (≈ 40.1 µM)
MIC [10]: 12.5 µg/mL (≈ 20 µM)
MIC [11]: 6.25 µg/mL (≈ 10 µM)
MIC [12]: 25 µg/mL (≈ 40.1 µM)
MIC [13]: > 50 µg/mL
MIC [14]: > 50 µg/mL
MIC [15]: > 50 µg/mL
MIC [16]: > 50 µg/mL
MIC [17]: 12.5 µg/mL (≈ 20 µM)
MIC [18]: 25 µg/mL (≈ 40.1 µM)
SMILES: CCC[C@@H]1OC(=O)[C@@H](C)C[C@H](C)CCCCC(=O)CCC[C@@H](CC)/C=C/C=C(\COC)CC[C@@H](O)[C@@H](O)C[C@H](O)CNC1=O

SMILES: CCC[C@@H]1OC(=O)CCCCCCCCCCCCCC/C=C/C[C@H](O)[C@H](O)[C@@H](O)[C@H](O)[C@H](O)CNC1=O
Activity [24]: inactive
Activity [25]: inactive
Activity [26]: inactive
Activity [27]: inactive
Activity [28]: Active
Activity [29]: inactive
Activity [30]: inactive
Activity [31]: inactive
Activity [32]: inactive
Activity [33]: Active
Activity [34]: inactive
Activity [35]: inactive
Activity [36]: inactive
Activity [37]: inactive
Activity [38]: inactive
Activity [39]: inactive
Activity [40]: inactive
Activity [41]: inactive
Activity [42]: inactive
Activity [43]: inactive
Activity [44]: inactive
Activity [45]: inactive
Activity [46]: Active
